The test system of data set [1] is fasted rats. As to the kind of experiment: Glucose tolerance test using fasted rats. In kind it is in vivo, Male Wistar rats. The conditions noted are these: for inhibition in vivo at 1 mg/kg / inhibition in vivo at 10 mg/kg / inhibition in vivo at 100 mg/kg / inhibition in vivo at 30 mg/kg: Rattus norvegicus, 30 min before glucose loading (1 g/kg i.p.); for inhibition in vivo at 1 mg/kg: dose 1 mg/kg oral; for inhibition in vivo at 10 mg/kg: dose 10 mg/kg oral; for inhibition in vivo at 100 mg/kg: dose 100 mg/kg oral; for inhibition in vivo at 30 mg/kg: dose 30 mg/kg oral; for blood glucose in hyperglycemia at 30 min after glucose loading / blood glucose level 120 min later when hyperglycemia was not observed: oral administration, versus control, Fig. 1 (Example 93), Fig. 2 (Example 65, various doses). As to the method: Glucose tolerance test using fasted rats
Glucose (1 g/kg) was intraperitoneally administered and blood (0.2 ml) was taken at 30, 60 and 120 minutes later from the tail vein. […] As a control, used was carboxymethylcellulose. The suppression of increase in blood glucose was expressed by inhibition ratio (%) in the group administered with test drug, relative to the increase in blood glucose in the control group at 30 min after glucose loading, which was taken as 100%. The blood glucose after 120 min was also shown by the ratio (%) of changes relative to the control.

The test system of data set [2] is fasted rats. As to the kind of experiment: Effects on blood glucose level of fasted rats. In kind it is in vivo, Male Wistar rats. Particulars: oral administration to rats fasted for 16 hr, blood at 30, 60 and 120 minutes; Fig. 4. As to the method: Effects on blood glucose level of fasted rats
As a control, used was carboxymethylcellulose, and blood glucose after administration of tolbutamide and the compounds of the present invention was determined.

The test system of data set [3] is fasted rats.
Where [4] appears, read: 0.5 h, inhibition of increase in blood glucose relative to control at 30 min, read-out: ratio of decrease at 30 min later(%).
The mark [5] stands for this setting: 2 h, blood glucose after 120 min, ratio of changes relative to control, read-out: ratio of decrease at 120 min later(%).

Read-outs that look alike come from different tables or passages of the source.

As to `O=C(CC(C(=O)O)C(=O)O)c1ccc(-c2ccccc2)cc1` [Example 69, 2-[2-(4-biphenylyl)-2-oxoethyl]propanedioic acid], the inhibition in vivo at 1 mg/kg in the data set on fasted rats [1] (setting [4]) came out at 22.1%; with fasted rats [1] (setting [5]), 4.9%. Moreover, the inhibition in vivo at 10 mg/kg in the data set with fasted rats [1] (setting [4]) is 24.6%; with fasted rats [1] (setting [5]), 3%.

Take `CC(=O)CCC(=O)c1ccc(-c2ccccc2)cc1` [Example 2, 1-(4-biphenylyl)-1,4-pentanedione]: the values for the inhibition in vivo at 100 mg/kg with fasted rats [1] (setting [4]) and with fasted rats [1] (setting [5]) were 29.7% and 3.8%, respectively.

As to `CC1(C(=O)CCC(=O)O)CCCCC1` [Example 61, 4-(1-methylcyclohexyl)-4-oxobutanoic acid], the inhibition in vivo at 30 mg/kg in the data set on fasted rats [1] (setting [4]) is 31.5%; with fasted rats [1] (setting [5]), -5.7%.

In the case of `CC(=O)CCC(=O)C1(C)CCCCC1` [Example 6, 1-(1-methyl-1-cyclohexyl)-1,4-pentanedione], the inhibition in vivo at 100 mg/kg with fasted rats [1] (setting [4]) is 19.8%; in the data set with fasted rats [1] (setting [5]) it was 15%.

Consider `CC(=O)NCC(=O)c1ccccc1` [Example 80, 2-acetaminoacetophenone], for which, in the data set with fasted rats [1] (setting [4]), the inhibition in vivo at 1 mg/kg amounted to 15.5% and the inhibition in vivo at 10 mg/kg was 12.4%. In addition, in the data set on fasted rats [1] (setting [5]), the inhibition in vivo at 1 mg/kg was -2.4% and the inhibition in vivo at 10 mg/kg is -1.5%.

For `O=C(O)CCC(=O)c1ccc(-c2ccccc2)cc1` [Example 47, 4-(4-biphenylyl)-4-oxobutanoic acid], in the data set with fasted rats [1] (setting [4]), the inhibition in vivo at 1 mg/kg came out at 26.5%, the inhibition in vivo at 10 mg/kg was 20.7% and the inhibition in vivo at 30 mg/kg stood at 29.1%. In the data set on fasted rats [1] (setting [5]), the inhibition in vivo at 1 mg/kg was 14.7%, the inhibition in vivo at 10 mg/kg stood at 4.7% and the inhibition in vivo at 30 mg/kg is 6.8%.

As to `CC(=O)CCC(=O)c1ccc(CO)cc1` [Example 20, 1-(4-hydroxymethylphenyl)-1,4-pentanedione], the inhibition in vivo at 30 mg/kg in the data set with fasted rats [1] (setting [4]) came out at 21.3%; in the data set with fasted rats [1] (setting [5]), 10.7%.

Take `O=C(O)CCC(=O)c1ccc2ccccc2c1` [Example 74, 4-(2-naphthyl)-4-oxobutanoic acid]: the inhibition in vivo at 10 mg/kg with fasted rats [1] (setting [4]) is 21.5%; in the data set with fasted rats [1] (setting [5]) it was -0.2%.

As for `O=C(O)CCC(=O)c1ccccc1` [Example 46, 4-oxo-4-phenylbutanoic acid], in the data set on fasted rats [1] (setting [4]), the inhibition in vivo at 1 mg/kg is 22.5% and the inhibition in vivo at 10 mg/kg worked out at 19.8%. In the data set on fasted rats [1] (setting [5]), the inhibition in vivo at 1 mg/kg was determined as 10.3% and the inhibition in vivo at 10 mg/kg was -7%.

For `O=C(O)CCC(=O)c1ccc(CO)cc1` [Example 49, 4-[4-(hydroxymethyl)phenyl]-4-oxobutanoic acid], the inhibition in vivo at 10 mg/kg in the data set on fasted rats [1] (setting [4]) stood at 25.2%; in the data set with fasted rats [1] (setting [5]) it was 2.2%.

For the compound `O=C1CC(C(=O)c2ccccc2)CO1` (racemic) [Example 81, (±)-4-benzoyldihydro-2(3H)-furanone], in the data set on fasted rats [1] (setting [4]), the inhibition in vivo at 1 mg/kg is 23.7% and the inhibition in vivo at 10 mg/kg was determined as 20.7%. For the same compound, in the data set with fasted rats [1] (setting [5]), the inhibition in vivo at 1 mg/kg was found to be 1.7% and the inhibition in vivo at 10 mg/kg is 6%.

Regarding `CC(=O)CCC(=O)c1ccccc1` [Example 1, 1-phenyl-1,4-pentanedione], in the data set on fasted rats [1] (setting [4]), the inhibition in vivo at 30 mg/kg came out at 18.9% and the inhibition in vivo at 100 mg/kg was found to be 14.9%. In addition, in the data set on fasted rats [1] (setting [5]), the inhibition in vivo at 30 mg/kg came out at 4.1% and the inhibition in vivo at 100 mg/kg came to 1.1%.

In the case of `CCCCNC(=O)NS(=O)(=O)c1ccc(C)cc1` [tolbutamide], the fasting blood glucose result in the data set with fasted rats [2] is “lowered the fasting blood glucose”. The “effect as a therapeutic agent for diabetes for treating hyperglycemia” value in the data set with fasted rats [3] (oral, in the dose that does not cause hypoglycemia, Fig. 3) is given as “did not show effective results”. Besides, the “blood glucose 120 min later” value in the data set with fasted rats [3] (rat, in vivo, po) is recorded as “induced hypoglycemia”.

In the case of `CC1(C(=O)c2ccc(-c3ccccc3)cc2)CCC(=O)O1` (single isomer, unassigned; (-)) [Example 93, (-)-dihydro-5-methyl-5-(4'-phenylbenzoyl)-2(3H)-furanone], in the data set on fasted rats [1], the “blood glucose in hyperglycemia at 30 min after glucose loading” value is listed as “significantly decreased the blood glucose” and the “blood glucose level 120 min later when hyperglycemia was not observed” value is on record as “did not unnecessarily lower the blood glucose level”. For the same compound, in the data set on fasted rats [2], the fasting blood glucose entry is on record as “did not lower the fasting blood glucose”.

In the case of `O=C(O)CCC(=O)C1CCCCC1` [Example 58, 4-cyclohexyl-4-oxobutanoic acid], in the data set on fasted rats [1] (setting [4]), the inhibition in vivo at 1 mg/kg worked out at 12.5%, the inhibition in vivo at 10 mg/kg was determined as 26.1% and the inhibition in vivo at 30 mg/kg was found to be 26.7%. Further, in the data set on fasted rats [1] (setting [5]), the inhibition in vivo at 1 mg/kg is -0.9%, the inhibition in vivo at 10 mg/kg came out at 4.8% and the inhibition in vivo at 30 mg/kg is -2.8%.

Turning to `CC(=O)CCC(=O)C1CCCCC1` [Example 5, 1-cyclohexyl-1,4-pentanedione], the inhibition in vivo at 100 mg/kg turned out to be 21.4% in the data set on fasted rats [1] (setting [4]) and 7.3% in the data set on fasted rats [1] (setting [5]).

With `C[C@H]1CC[C@H](C(=O)CCC(=O)O)CC1` [Example 65, trans-4-(4-methylcyclohexyl)-4-oxobutanoic acid], in the data set with fasted rats [1] (setting [4]), the inhibition in vivo at 10 mg/kg was 31.7% and the inhibition in vivo at 30 mg/kg was found to be 41.2%. Moreover, in the data set with fasted rats [1] (setting [5]), the inhibition in vivo at 10 mg/kg amounted to 5% and the inhibition in vivo at 30 mg/kg was 10.5%. Also, in the data set on fasted rats [1], the “blood glucose in hyperglycemia at 30 min after glucose loading” value is given as “tends to show significant decrease in the blood glucose level” and the “blood glucose level 120 min later when hyperglycemia was not observed” value was “does not unnecessarily lower the blood glucose level”.

For `O=C1CC(C(=O)c2ccc(-c3ccccc3)cc2)CO1` (racemic) [Example 82, (±)-dihydro-4-(4'-phenylbenzoyl)-2(3H)-furanone], the inhibition in vivo at 1 mg/kg in the data set on fasted rats [1] (setting [4]) is 24.6%; in the data set with fasted rats [1] (setting [5]), -8.2%.

Source of the values: EP0885869A1, “THERAPEUTIC AGENT FOR DIABETES” (Japan Tobacco Inc., priority 1996, dated 1997).
